Key:
[1] = system: liver injury induced by D-galactosamine; test: Experimental Example 1e: effect on liver injury induced by D-galactosamine in rats (group I-e); type: in vivo, male Fischer (F344) rats; settings: Rattus norvegicus, po, 48 h, Table 1e, D-galactosamine 400 mg/kg, compound 100 mg/kg in 0.5% aqueous methylcellulose
Experimental: The D-galactosamine was used in the form of a solution having a concentration of 200 mg/ml, obtained by dissolving D-galactosamine in a physiological saline solution to obtain a dilute D-galactosamine solution and adjusting the pH of the dilute solution to 7.0 with 10N aqueous potassium hydroxide. Blood was collected from the rat's tail vein 48 h after the injection of D-galactosamine. The blood coagulation time was determined by the […]) and GPT activity in the blood plasma was determined by an enzymatic method.

[2] = Study of plants used as folk medicines for liver trouble remedies; settings: in words
[3] = system: liver injury induced by D-galactosamine; test: Experimental Example 2b: inhibition of liver injury in rats (group I-b), method given as that of Experimental Example 1b; type: in vivo, male Fischer (F344) rats; settings: Rattus norvegicus, 48 h; Table 2b; compound 100 mg/kg oral in 0.5% methylcellulose; read-out: Inhibition ratio (%) GPT
Experimental: The test was conducted in the same manner as shown in Experimental Example 1b except that the test compound was orally administered to the rats in a dose of 100 mg/kg in 0.5% methylcellulose solution.

[4] = system: liver injury induced by D-galactosamine; test: Experimental Example 1b: effect on liver injury induced by D-galactosamine in rats (group I-b); type: in vivo, male Fischer (F344) rats; settings: Rattus norvegicus, po, 48 h, Table 1b, D-galactosamine 400 mg/kg, compound 100 mg/kg in 0.5% methylcellulose
[5] = system: liver injury induced by D-galactosamine; test: Experimental Example 1f: effect on liver injury induced by D-galactosamine in rats (group I-f); type: in vivo, male Fischer (F344) rats; settings: Rattus norvegicus, po, 48 h, Table 1f, D-galactosamine 400 mg/kg, compound 100 mg/kg in 0.5% methylcellulose
Experimental: 300 mg/kg of D-galactosamine was administered to male Fischer (F344) rats weighing around 180 g by subcutaneous injection to induce liver injury. Each compound was dissolved in distilled water was given by oral administration in a dose of 50 mg/kg one hour after the injection of D-galactosamine.
The D-galactosamine was used in the form of a solution having a concentration of 200 mg/ml, obtained by dissolving D-galactosamine in a physiological saline solution to obtain a dilute D-galactosamine solution and adjusting the pH of the dilute solution to 7.0 with 10N aqueous potassium hydroxide.
Blood was collected from the rat's tail vein 48 h after the injection of D-galactosamine. The blood coagulation time was determined by the hepaplastin test (HPT) and GPT activity in the blood plasma was determined by an enzymatic method.
The test was conducted in the same way as shown in Experimental Example 1a except that 400 mg/kg of D-galactosamine was administered in its physiological saline solution and each test compound was used in an amount of 100 mg/kg in 0.5% methylcellulose liquid.

[6] = read-out: Inhibition ratio (%) GPT
[7] = read-out: Inhibition ratio (%) HPT

O=C(OCCSSCc1ccc2c(c1)OCO2)c1cccnc1 [Compound 10, 2-[{(1,3-Benzodioxol-5-yl)methyl}dithio]ethyl nicotinate]
inhibition in vivo at 100 mg/kg [1, 6]: 72% | inhibition in vivo at 100 mg/kg [1, 7]: 43%

OC1OCC(Cc2ccc3c(c2)OCO3)C1Cc1ccc2c(c1)OCO2 (stereo not drawn) [cubebin]
effect as liver trouble remedy [2]: effective as liver trouble remedies

C[S+]([O-])CCc1ccc2c(c1)OCO2 (stereo not drawn) [Compound 26]
inhibition in vivo at 100 mg/kg [3]: 97% | inhibition in vivo at 100 mg/kg [4, 6]: 100% | inhibition in vivo at 100 mg/kg [4, 7]: 100%

OCCSSSCc1ccccc1 [2-[(phenylmethyl)trithio]ethanol]
effect as liver trouble remedy [2]: effective as liver trouble remedies

CC(Cc1ccc2c(c1)OCO2)SSCCO (stereo not drawn) [Compound 12, 2-[{2-(1,3-Benzodioxol-5-yl)-1-methylethyl}dithio]ethanol]
inhibition in vivo at 100 mg/kg [1, 6]: 63% | inhibition in vivo at 100 mg/kg [1, 7]: 45%

NC(=O)CSCCc1ccc2c(c1)OCO2 [Compound 16]
inhibition in vivo at 100 mg/kg [3]: 61% | inhibition in vivo at 100 mg/kg [4, 6]: 86% | inhibition in vivo at 100 mg/kg [4, 7]: 94%

O=C(OCCSSCCCc1ccc2c(c1)OCO2)c1cccnc1 [compound 7]
inhibition in vivo at 100 mg/kg [1, 6]: 72% | inhibition in vivo at 100 mg/kg [1, 7]: 43%

CC(CC(=O)O)SCCc1ccc2c(c1)OCO2 (stereo not drawn) [Compound 13]
inhibition in vivo at 100 mg/kg [3]: 86% | inhibition in vivo at 100 mg/kg [4, 6]: 99% | inhibition in vivo at 100 mg/kg [4, 7]: 99%

CC(C)c1cc2c(cc1CCSCC(=O)O)OCO2 [Compound 9]
inhibition in vivo at 100 mg/kg [5, 6]: 88% | inhibition in vivo at 100 mg/kg [5, 7]: 67%

Cc1cc2c(cc1C(C)SCC(N)=O)OCO2 (stereo not drawn) [Compound 13]
inhibition in vivo at 100 mg/kg [5, 6]: 50% | inhibition in vivo at 100 mg/kg [5, 7]: 17%

NC(=O)CCSCCc1ccc2c(c1)OCO2 [Compound 17]
inhibition in vivo at 100 mg/kg [3]: 98% | inhibition in vivo at 100 mg/kg [4, 6]: 97% | inhibition in vivo at 100 mg/kg [4, 7]: 99%

CC(C)(SCC(N)=O)c1ccc2c(c1)OCO2 [Compound 11]
inhibition in vivo at 100 mg/kg [5, 6]: 97% | inhibition in vivo at 100 mg/kg [5, 7]: 68%

O=C(O)CCSCCc1ccc2c(c1)OCO2 [Compound 9]
inhibition in vivo at 100 mg/kg [3]: 98% | inhibition in vivo at 100 mg/kg [4, 6]: 100% | inhibition in vivo at 100 mg/kg [4, 7]: 99%

CS(=O)(=O)CCc1ccc2c(c1)OCO2 [Compound 28]
inhibition in vivo at 100 mg/kg [3]: 97% | inhibition in vivo at 100 mg/kg [4, 6]: 95% | inhibition in vivo at 100 mg/kg [4, 7]: 98%

CC(Cc1ccc2c(c1)OCO2)SSC(C)Cc1ccc2c(c1)OCO2 (stereo not drawn) [compound 11]
inhibition in vivo at 100 mg/kg [1, 6]: 76% | inhibition in vivo at 100 mg/kg [1, 7]: 68%

O=C(O)CCCSCCc1ccc2c(c1)OCO2 [Compound 10]
inhibition in vivo at 100 mg/kg [3]: 43% | inhibition in vivo at 100 mg/kg [4, 6]: 89% | inhibition in vivo at 100 mg/kg [4, 7]: 99%

CC(C)(SCC(=O)O)c1ccc2c(c1)OCO2 [Compound 2]
inhibition in vivo at 100 mg/kg [5, 6]: 76% | inhibition in vivo at 100 mg/kg [5, 7]: 83%

OCCSSCCc1ccc2c(c1)OCO2 [Compound 1, 2-[{2-(1,3-Benzodioxol-5-yl)ethyl}dithio]ethanol]
inhibition in vivo at 100 mg/kg [1, 6]: 92% | inhibition in vivo at 100 mg/kg [1, 7]: 62%

c1cc2c(cc1CCSSCCc1ccc3c(c1)OCO3)OCO2 [Compound 2, Bis{2-(1,3-benzodioxol-5-yl)ethyl}disulfide]
inhibition in vivo at 100 mg/kg [1, 6]: 64% | inhibition in vivo at 100 mg/kg [1, 7]: 57%

O=C(O)CSCCc1ccc2c(c1)OCO2 [Compound 8]
inhibition in vivo at 100 mg/kg [3]: 53%

CCCC(SCC(=O)NCC(=O)O)c1ccc2c(c1)OCO2 (stereo not drawn) [Compound 17]
inhibition in vivo at 100 mg/kg [5, 6]: 91% | inhibition in vivo at 100 mg/kg [5, 7]: 70%

OCCCSCCc1ccc2c(c1)OCO2 [Compound 4]
inhibition in vivo at 100 mg/kg [3]: 93% | inhibition in vivo at 100 mg/kg [4, 6]: 98% | inhibition in vivo at 100 mg/kg [4, 7]: 98%

Cc1cc2c(cc1C(C)SCC(=O)O)OCO2 (stereo not drawn) [Compound 3]
inhibition in vivo at 100 mg/kg [5, 6]: 100% | inhibition in vivo at 100 mg/kg [5, 7]: 100%

O=C(O)CCCCSCCc1ccc2c(c1)OCO2 [Compound 11]
inhibition in vivo at 100 mg/kg [3]: 90% | inhibition in vivo at 100 mg/kg [4, 6]: 96% | inhibition in vivo at 100 mg/kg [4, 7]: 98%

c1ccc(CCSSCCCc2ccc3c(c2)OCO3)cc1 [Compound 6, 3-(1,3-Benzodioxol-5-yl)propyl phenethyl disulfide]
inhibition in vivo at 100 mg/kg [1, 6]: 55% | inhibition in vivo at 100 mg/kg [1, 7]: 53%

Cc1cc2c(cc1CSCC(=O)O)OCO2 [Compound 6]
inhibition in vivo at 100 mg/kg [5, 6]: 100% | inhibition in vivo at 100 mg/kg [5, 7]: 100%

CCCC(SCC(=O)O)c1ccc2c(c1)OCO2 (stereo not drawn) [Compound 1]
inhibition in vivo at 100 mg/kg [5, 6]: 84% | inhibition in vivo at 100 mg/kg [5, 7]: 100%

CCOC(=O)CSCCc1ccc2c(c1)OCO2 [Compound 25]
inhibition in vivo at 100 mg/kg [3]: 21% | inhibition in vivo at 100 mg/kg [4, 6]: 34% | inhibition in vivo at 100 mg/kg [4, 7]: 61%

CCC(SCC(=O)O)c1cc2c(cc1C)OCO2 (stereo not drawn) [Compound 4]
inhibition in vivo at 100 mg/kg [5, 6]: 89% | inhibition in vivo at 100 mg/kg [5, 7]: 100%

O=C(OCCSSCCc1ccc2c(c1)OCO2)c1cccnc1 [Compound 3, 2-[{2-(1,3-Benzodioxol-5-yl)ethyl}dithio]ethyl nicotinate]
inhibition in vivo at 100 mg/kg [1, 6]: 92% | inhibition in vivo at 100 mg/kg [1, 7]: 62%

CCCCCCCCCSSCCCc1ccc2c(c1)OCO2 [Compound 9, 3-(1,3-Benzodioxol-5-yl)propyl nonyl disulfide]
inhibition in vivo at 100 mg/kg [1, 6]: 53% | inhibition in vivo at 100 mg/kg [1, 7]: 49%

From US5292901A, “Benzodioxole derivatives” (Eisai Co., Ltd., priority 1987, dated 1994)
